In patent publication US9962391B2, “Composition and method for compounded therapy” (CMPD LICENSING, LLC, priority 2011, dated 2018):

Experiments:
[1] = Forced degradation study (heat and acid) on Meloxicam/Gabapentin/Lidocaine/Prilocaine Cream 0.09%/2.5%/2.15%/2.15%; conditions: untreated, heat treated and acid treated samples, undiluted extracts
Procedure: (§1) The column temperature was 50° C.
as §1

[2] = 100 Day Potency Test of transdermal cream including meloxicam, topiramate, lidocaine, and prilocaine; assay type: physicochemical; conditions: 100 days, stored at approximately 20° C. to 25° C., in cream, HPLC; for % of EXP.: relative to expected amount
Procedure: (§2) The sample was stored in approximately 20° C. to 25° C. (68° F. to 77° F.) conditions, and contained one large white tube with cream in a clear bag.

[3] = 198 Day Potency Test of transdermal cream including meloxicam, lamotrigine, lidocaine, and prilocaine; assay type: physicochemical; conditions: 198 days, stored at approximately 20° C. to 25° C., in cream, HPLC; for % of EXP.: relative to expected amount
Procedure: as §2

SMILES | Degradation seen in Total Ion Chromatograms (TIC) [1] | Results (amount of analyte found) [2] [%] | % of EXP. [2] [%] | Results (amount of analyte found) [3] [%] | % of EXP. [3] [%]
NCC1(CC(=O)O)CCCCC1 [Gabapentin] | major degradant at 1.18 minute was caused both by acid and by heat | – | – | – | –
CC1(C)O[C@@H]2[C@@H](CO[C@@]3(COS(N)(=O)=O)OC(C)(C)O[C@@H]23)O1 [Topiramate] | – | 2.368 | 94.7 | – | –
CCCNC(C)C(=O)Nc1ccccc1C (stereo not shown) [Prilocaine] | – | 1.899 | 95.0 | 2.118 | 105.9
CCN(CC)CC(=O)Nc1c(C)cccc1C [Lidocaine] | – | 1.700 | 85.0 | 1.927 | 96.4
Nc1nnc(-c2cccc(Cl)c2Cl)c(N)n1 [Lamotrigine] | – | – | – | 2.463 | 98.5
